Measurements: US20070178054A1, “ORAL ANTIMICROBIAL COMPOSITION” (priority 2005, published 2007)

Experiments:
Type in all cases: cell-based, Streptococcus mutans
[1] = system: biofilm-embedded S. mutans; test: Survival of biofilm-embedded S. mutans (CFU counts), E2 peptide compositions, 12-well plates; details: 20 h biofilm, E2 20 μg/ml, combination of both
Protocol: (§1) Streptococcus mutans UA159 strain was used in these Examples. S. mutans strain UA159 was grown in Todd-Hewitt broth containing 0.3% yeast extract (THYE) at pH 7.0 and was subcultured routinely on THYE agar plates and incubated at 37° C. in an anaerobic chamber (5% CO2). In liquid media, cultures were incubated in closed screw-cap tubes without agitation at 37° C. in an anaerobic chamber (5% CO2)
(§2) Biofilms were developed on 12-well polystyrene microtiter plates to provide a rapid and simple method for assaying biofilm-embedded live oral bacteria (e.g. S. mutans). A 4× diluted THYE medium supplemented with final concentration of 0.01% hog gastric mucin (Sigma, St. Louis, Mo.) was used as biofilm medium (BM). Formation of biofilms was initiated by inoculating 20 μl of S. mutans cell suspension (1.2×10^7 CFU/ml) into each well containing 2 ml of BM and four wells were set up: two for control and two for treatment with compositions comprising synthetic E2 peptide and Nisin or E2 and CHX. After cultures were incubated at 37° C. for 20 hours under an anaerobic condition, fluid medium was removed. The wells were rinsed once with 10 mM PBS buffer (pH 7.2) and biofilm-embedded cells were collected in two ml PBS buffer, gently sonicated for 15 seconds, serially diluted, spread on THYE plates, and incubated at 37° C. under anaerobic conditions. Biofilm-embedded viable cells were quantified by colony forming unit (CFU) counts after 48 hours of incubation.

[2] = system: biofilm-embedded S. mutans; test: Survival of biofilm-embedded S. mutans (CFU counts), CSP compositions, 12-well plates; details: 20 h biofilm, combination of both
Protocol: as §1
as §2, with “developed in” for “developed on”, “mucin (Sigma)” for “mucin (Sigma, St. Louis, Mo.)”, “(BM). Fonnation” for “(BM). Formation”, “synthetic CSP” for “synthetic E2 peptide”, “or chlorhexidine or xylitol or triclosan or citric acid or zinc citrate or sodium fluoride or oleanolic acid or lansoprazole or epigallocatechin gallate or chitosan.” for “or E2 and CHX.”, “fluid media were” for “fluid medium was”

S. mutans UA159 [3] = test: S. mutans biofilm formation, crystal violet staining (OD 630 nm); details: 24 h, E2 20 μg/ml, combination of both
Protocol: as §1
(§3) Wells without cells were used as blank controls.
(§4) The microtiter plates were then incubated at 37° C. in an anaerobic chamber (5% CO2) for 24 hours without agitation. After the incubation, the growth was measured at 600 nm with a microplate reader. The planktonic cells were carefully removed, and plates were air dried overnight. The plates were then stained with 0.4% crystal violet for 10 minutes, rinsed with sterile distilled water and air dried for 15 minutes. Biofilm was quantified by measuring the absorbance of stained biofilm at 630 nm with a microplate reader.

S. mutans UA159 [4] = test: S. mutans growth in 96-well microtiter plate (OD 600 nm); details: 24 h, E2 20 μg/ml, combination of both
Protocol: as §1, §3, §4

[5] = system: biofilm-embedded S. mutans; test: Survival of biofilm-embedded S. mutans (CFU counts), E2 peptide compositions, 12-well plates; details: 20 h biofilm, E2 20 μg/ml, combination of both; remark: listed apart in the source
[6] = CSP 50 μg/ml, nisin 80 μg/ml, control 1.6 × 10^6
[7] = CSP 40 μg/ml, lansoprazole 37 μg/ml, control 1.2 × 10^6
[8] = lansoprazole 0.1 mM, control 1.32
[9] = lansoprazole 37 μg/ml, control 8
[10] = lansoprazole 0.1 mM, control 0.38
[11] = CSP 40 μg/ml, citric acid 1200 μg/ml, control 3.4 × 10^5
[12] = citric acid 1.2 mg/ml, control 1.23
[13] = citric acid 1200 μg/ml, control 1.7
[14] = citric acid 1.2 mg/ml, control 0.34
[15] = CSP 40 μg/ml, sodium fluoride 250 μg/ml, control 2.6 × 10^5
[16] = sodium fluoride 600 μg/ml, control 0.93
[17] = sodium fluoride 800 μg/ml, control 2.9
[18] = sodium fluoride 600 μg/ml, control 0.40
[19] = chlorhexidine 0.15 μg/ml, control 1.4
[20] = triclosan 25 μg/ml, control 1.58
[21] = xylitol 15.2 mg/ml, control 0.78
[22] = triclosan 25 μg/ml, control 0.33
[23] = xylitol 15.2 mg/ml, control 0.37
[24] = CSP 40 μg/ml, triclosan 500 μg/ml, control 6.8 × 10^5
[25] = CSP 40 μg/ml, chlorhexidine 0.15 μg/ml, control 1.4 × 10^6
[26] = CSP 40 μg/ml, oleanolic acid 250 μg/ml, control 4 × 10^5
[27] = CSP 40 μg/ml, zinc citrate 1200 μg/ml, control 8 × 10^5

Compound: nisin
- CFU × 10^6 ([1]; nisin 80 μg/ml, control 2.8): 3.0 CFU × 10^6
- CPU [2, 6]: 1 × 10^6 CFU
- Biofilm (OD @ 630 nm) (S. mutans UA159 [3]; nisin 80 μg/ml, control 1.03): 0.6 OD
- Growth (OD @ 600 nm) (S. mutans UA159 [4]; nisin 80 μg/ml, control 0.36): 0.23 OD

Compound: Cc1c(OCC(F)(F)F)ccnc1C[S+]([O-])c1nc2ccccc2[nH]1 (stereo not drawn) [Lansoprazole, lansoprazole, reference compound]
- CPU [2, 7]: 1 × 10^6 CFU
- Biofilm (OD @ 630 nm) (S. mutans UA159 [3]; [8]): 1.35 OD
- CFU × 10^6 [5, 9]: 6.2 CFU × 10^6
- Growth (OD @ 600 nm) (S. mutans UA159 [4]; [10]): 0.4 OD

Compound: O=C(O)CC(O)(CC(=O)O)C(=O)O [Citric acid, citric acid]
- CPU [2, 11]: 8 × 10^4 CFU
- Biofilm (OD @ 630 nm) (S. mutans UA159 [3]; [12]): 0.38 OD
- CFU × 10^6 [5, 13]: 0.05 CFU × 10^6
- Growth (OD @ 600 nm) (S. mutans UA159 [4]; [14]): 0.02 OD

Compound: [F-].[Na+] [Sodium fluoride, sodium fluoride, reference compound]
- CPU [2, 15]: 7 × 10^5 CFU
- Biofilm (OD @ 630 nm) (S. mutans UA159 [3]; [16]): 0.12 OD
- CFU × 10^6 [5, 17]: 2.7 CFU × 10^6
- Growth (OD @ 600 nm) (S. mutans UA159 [4]; [18]): 0.02 OD

Compound: O=C(O[C@@H]1Cc2c(O)cc(O)cc2O[C@@H]1c1cc(O)c(O)c(O)c1)c1cc(O)c(O)c(O)c1 [EGCg, Epigallocatechin gallate]
- Biofilm (OD @ 630 nm) (S. mutans UA159 [3]; EGCg 150 μg/ml, control 1.52): 0.41 OD
- Growth (OD @ 600 nm) (S. mutans UA159 [4]; EGCg 150 μg/ml, control 0.32): 0.08 OD

Compound: SGSLSTFFRLFNASFTQALGK (Synthetic E2) [Peptide E2, second arginine from the C' terminus substituted with alanine]
- CFU × 10^6 [1, 19]: 0.9 CFU × 10^6
- CFU × 10^6 ([1]; nisin 80 μg/ml, control 2.8): 2.5 CFU × 10^6
- Biofilm (OD @ 630 nm) (S. mutans UA159 [3]; CHX 0.154 μg/ml, control 0.88): 0.34 OD
- Biofilm (OD @ 630 nm) (S. mutans UA159 [3]; EGCg 150 μg/ml, control 1.52): 0.92 OD
- Biofilm (OD @ 630 nm) (S. mutans UA159 [3]; OA 2 μg/ml, control 0.8): 0.33 OD
- Biofilm (OD @ 630 nm) (S. mutans UA159 [3]; chitosan 1 μg/ml, control 2.10): 1.18 OD
- Biofilm (OD @ 630 nm) (S. mutans UA159 [3]; [12]): 0.54 OD
- Biofilm (OD @ 630 nm) (S. mutans UA159 [3]; [8]): 0.4 OD
- Biofilm (OD @ 630 nm) (S. mutans UA159 [3]; nisin 80 μg/ml, control 1.03): 0.24 OD
- Biofilm (OD @ 630 nm) (S. mutans UA159 [3]; [16]): 0.16 OD
- Biofilm (OD @ 630 nm) (S. mutans UA159 [3]; [20]): 1.00 OD
- Biofilm (OD @ 630 nm) (S. mutans UA159 [3]; [21]): 0.34 OD
- CFU × 10^6 ([5]; chitosan 1 μg/ml, control 1.4): 0.1 CFU × 10^6
- CFU × 10^6 [5, 13]: 0.6 CFU × 10^6
- CFU × 10^6 [5, 9]: 4.3 CFU × 10^6
- CFU × 10^6 [5, 17]: 1 CFU × 10^6
- Growth (OD @ 600 nm) (S. mutans UA159 [4]; CHX 0.154 μg/ml, control 0.39): 0.11 OD
- Growth (OD @ 600 nm) (S. mutans UA159 [4]; EGCg 150 μg/ml, control 0.32): 0.22 OD
- Growth (OD @ 600 nm) (S. mutans UA159 [4]; OA 2 μg/ml, control 0.4): 0.26 OD
- Growth (OD @ 600 nm) (S. mutans UA159 [4]; chitosan 1 μg/ml, control 0.37): 0.28 OD
- Growth (OD @ 600 nm) (S. mutans UA159 [4]; [14]): 0.26 OD
- Growth (OD @ 600 nm) (S. mutans UA159 [4]; [10]): 0.2 OD
- Growth (OD @ 600 nm) (S. mutans UA159 [4]; nisin 80 μg/ml, control 0.36): 0.11 OD
- Growth (OD @ 600 nm) (S. mutans UA159 [4]; [18]): 0.23 OD
- Growth (OD @ 600 nm) (S. mutans UA159 [4]; [22]): 0.12 OD
- Growth (OD @ 600 nm) (S. mutans UA159 [4]; [23]): 0.12 OD

Compound: Oc1cc(Cl)ccc1Oc1ccc(Cl)cc1Cl [Triclosan, triclosan, reference compound]
- CPU [2, 24]: 7 × 10^2 CFU
- Biofilm (OD @ 630 nm) (S. mutans UA159 [3]; [20]): 1.69 OD
- Growth (OD @ 600 nm) (S. mutans UA159 [4]; [22]): 0.33 OD

Compound: [H]/N=C(\N/C(=N/[H])NCCCCCCNC(=N)NC(=N)Nc1ccc(Cl)cc1)Nc1ccc(Cl)cc1 [CHX, Chlorhexidine, reference compound]
- CFU × 10^6 [1, 19]: 1.9 CFU × 10^6
- CPU [2, 25]: 2 × 10^6 CFU
- Biofilm (OD @ 630 nm) (S. mutans UA159 [3]; CHX 0.154 μg/ml, control 0.88): 1.00 OD
- Growth (OD @ 600 nm) (S. mutans UA159 [4]; CHX 0.154 μg/ml, control 0.39): 0.39 OD

Compound: CC1(C)CC[C@]2(C(=O)O)CC[C@]3(C)C(=CC[C@@H]4[C@@]5(C)CC[C@H](O)C(C)(C)[C@@H]5CC[C@]43C)[C@@H]2C1 [OA, Oleanolic acid]
- CPU [2, 26]: 1.7 × 10^5 CFU
- Biofilm (OD @ 630 nm) (S. mutans UA159 [3]; OA 2 μg/ml, control 0.8): 0.94 OD
- Growth (OD @ 600 nm) (S. mutans UA159 [4]; OA 2 μg/ml, control 0.4): 0.32 OD

Compound: SGSLSTFFRLFNRSFTQALGK (Streptococcus mutans) [CSP]
- CPU ([2]; CSP 40 μg/ml, chitosan 0.25 μg/ml, control 7.6 × 10^5): 2.2 × 10^5 CFU
- CPU [2, 25]: 0.1 × 10^6 CFU
- CPU [2, 11]: 2 × 10^4 CFU
- CPU [2, 7]: 1.4 × 10^6 CFU
- CPU [2, 26]: 2 × 10^4 CFU
- CPU [2, 15]: 1.7 × 10^5 CFU
- CPU [2, 24]: 7 × 10^4 CFU
- CPU [2, 27]: 0.5 × 10^5 CFU
- CPU [2, 6]: 1 × 10^6 CFU

Compound: O=C([O-])CC(O)(CC(=O)[O-])C(=O)[O-].O=C([O-])CC(O)(CC(=O)[O-])C(=O)[O-].[Zn+2].[Zn+2].[Zn+2] [Zinc citrate, zinc citrate]
- CPU [2, 27]: 0.8 × 10^5 CFU

Compound: OC[C@@H](O)[C@H](O)[C@@H](O)CO [Xylitol, xylitol]
- Biofilm (OD @ 630 nm) (S. mutans UA159 [3]; [21]): 0.32 OD
- Growth (OD @ 600 nm) (S. mutans UA159 [4]; [23]): 0.07 OD
